Measured values published in patent publication US12122833B2, “Combination therapies of HDAC inhibitors and PD-1 inhibitors” (HUYABIO International, LLC, priority 2016, dated 2024).

Legend:
HDAC 1 = HDAC 1 (Homo sapiens, UniProt Q13547); conditions: reported by Ning et al.; cited from earlier work
HDAC 8 = target: T1, HDAC 8 (Homo sapiens, UniProt Q9BY41); conditions: cited from earlier work
T1 sequence (Q9BY41 1-377): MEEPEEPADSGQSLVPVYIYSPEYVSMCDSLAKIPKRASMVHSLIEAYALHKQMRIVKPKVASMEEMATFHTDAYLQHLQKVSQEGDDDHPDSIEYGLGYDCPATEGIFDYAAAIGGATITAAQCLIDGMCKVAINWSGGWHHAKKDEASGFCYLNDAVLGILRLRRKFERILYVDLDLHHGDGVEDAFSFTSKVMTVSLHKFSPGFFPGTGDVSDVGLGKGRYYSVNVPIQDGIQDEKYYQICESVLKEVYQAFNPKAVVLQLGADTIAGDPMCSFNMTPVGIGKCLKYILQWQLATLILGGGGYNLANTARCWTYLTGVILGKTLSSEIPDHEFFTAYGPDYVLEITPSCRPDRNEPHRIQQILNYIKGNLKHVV

HDAC 2 = HDAC 2 (Homo sapiens, UniProt Q92769); conditions: reported by Ning et al.; cited from earlier work
[1] = test system: MC38 murine colon carcinoma; assay: Example 3: second-line therapy after PD-L1 inhibitor antibody failure, MC38 syngeneic model in C57BL/6 mice; format: in vivo, mouse
From the text: In this model, a proportion of the animals treated 1st line with the PD-L1 checkpoint inhibitor antibody experience complete tumor regression. However, a similar proportion of animals treated 1st line with the PD-L1 inhibitor antibody experience rapid tumor progression. The balance of the animals treated in this way experience slow tumor progression or stable disease, which is a result which approximates the situation in a number of human cancer patients receiving PD-L1 inhibitor antibody therapy, i.e., they experience a transient partial response, including stable disease, but then develop resistance and rapidly progress, failing PD-1 inhibitor antibody therapy. In this example, the efficacy of HBI-8000 as a second-line therapy, alone and in combination with PD-1 inhibitor antibody RMPI-14, was evaluated for the ability to cause tumor growth delay (TGD) in animals which tumors which are progressing following PD-L1 inhibitor antibody first line therapy in the MC38 murine colon carcinoma syngeneic model in immunocompetent C57BL/6 mice.
Female C57BL/6 mice bearing subcutaneous MC38 tumors (mean tumor volume: 114 mm^3 when treatment began) were treated with a first line of therapy of PD-L1 inhibitor antibody treatment, administered intraperitoneally (i.p.) at 5 mg/kg, twice weekly for two weeks (biwk×2). […] Dosing began on D1, which represents the day of recruitment and varied among mice (this was normalized for each group). The second-line therapies were as follows. Vehicle was administered orally (p.o.). HBI-8000 was administered p.o. at 50 mg/kg. PD-1 inhibitor antibody and anti-PDL-1 were administered intraperitoneally (i.p) at 5 mg/kg. Group 1 mice served as controls and received 0.2% carboxymethyl cellulose: 0.1% Tween 80 in deionized water (vehicle) once daily for twenty-one days (qd×21). Group 2 received HBI-8000 qd×21. Group 3 received a second course of PD-L1 inhibitor antibody biwk×2. Group 4 received HBI-8000 qd×21 and PD-L1 inhibitor antibody biwk×2. Group 5 received anti-PD-1 biwk×2. Group 6 received HBI-8000 qd×21 and anti-PD-1 biwk×2. The study endpoint was tumor volume of 1500 mm^3 or 45 days, whichever came first. Tumor measurements were taken twice weekly until D44 with individual animals exiting the study upon reaching the tumor volume endpoint.
Tumor Implantation and Measurement: Details of tumor implantation and measurement of tumor growth used in this example can be found in Example 1. In this example, each mouse was inoculated subcutaneously in the right flank with 5×10^5 cells (0.1 mL of cell suspension).
Test Articles: HUYA Bioscience International provided HBI-8000 (Lot No. 1384:0033). PD-1 inhibitor antibody RMPI-14 (Lot No. 5611-10/0615) and PDL-1 antibody 10F.9G2 (anti-PDL-1, Lot No. 5786-7-8/0815) were purchased from Bio X cell (West Lebanon, N.H.). All agents were prepared according to protocol instructions.
Dosing Solutions: HBI-8000 was prepared by diluting in 0.2% CMC: 0.1% Tween 80 to yield a 5 mg/mL dosing solution. Dosing solutions were prepared fresh weekly and stored at 4° C. PD-1 inhibitor antibody dosing solution was prepared by diluting an aliquot of the stock (8.62 mg/mL) to 0.5 mg/mL in sterile PBS. The dosing solution was prepared twice weekly and stored at 4° C. Anti-PDL-1 antibody dosing solution was prepared by diluting an aliquot of the stock (5.37 mg/mL) to 0.5 mg/mL in sterile PBS. The anti-PDL-1 antibody dosing solution was prepared twice weekly and stored at 4° C.
Treatment: For the initial PD-L1 inhibitor antibody failure part of this study, 150 C57BL/6 mice were dosed i.p. with first line PD-L1 inhibitor antibody at 5 mg/kg, biwk×2. Animals that met the criteria for reenrollment comprised the efficacy study; this included animals with two consecutive increases in tumor volume and tumor volumes below 500 mm^3. […]

[2] = HBI-8000 50 mg/kg p.o. qd×21, antibodies 5 mg/kg i.p., vs vehicle

HDAC 1, sequence (Q13547 whole entry): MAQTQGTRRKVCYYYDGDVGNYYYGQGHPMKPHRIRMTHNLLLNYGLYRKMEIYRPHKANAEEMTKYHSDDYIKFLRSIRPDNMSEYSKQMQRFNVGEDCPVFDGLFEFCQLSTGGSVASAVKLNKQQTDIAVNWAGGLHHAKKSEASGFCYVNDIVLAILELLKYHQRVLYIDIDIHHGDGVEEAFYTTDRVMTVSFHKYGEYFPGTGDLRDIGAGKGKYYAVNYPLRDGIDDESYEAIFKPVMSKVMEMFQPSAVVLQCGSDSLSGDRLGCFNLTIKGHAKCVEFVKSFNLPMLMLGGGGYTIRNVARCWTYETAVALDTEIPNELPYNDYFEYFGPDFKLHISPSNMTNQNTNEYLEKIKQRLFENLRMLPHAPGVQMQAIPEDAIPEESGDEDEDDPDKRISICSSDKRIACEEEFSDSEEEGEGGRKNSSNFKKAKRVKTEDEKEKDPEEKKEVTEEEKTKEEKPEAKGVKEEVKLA
HDAC 2, sequence (Q92769 whole entry): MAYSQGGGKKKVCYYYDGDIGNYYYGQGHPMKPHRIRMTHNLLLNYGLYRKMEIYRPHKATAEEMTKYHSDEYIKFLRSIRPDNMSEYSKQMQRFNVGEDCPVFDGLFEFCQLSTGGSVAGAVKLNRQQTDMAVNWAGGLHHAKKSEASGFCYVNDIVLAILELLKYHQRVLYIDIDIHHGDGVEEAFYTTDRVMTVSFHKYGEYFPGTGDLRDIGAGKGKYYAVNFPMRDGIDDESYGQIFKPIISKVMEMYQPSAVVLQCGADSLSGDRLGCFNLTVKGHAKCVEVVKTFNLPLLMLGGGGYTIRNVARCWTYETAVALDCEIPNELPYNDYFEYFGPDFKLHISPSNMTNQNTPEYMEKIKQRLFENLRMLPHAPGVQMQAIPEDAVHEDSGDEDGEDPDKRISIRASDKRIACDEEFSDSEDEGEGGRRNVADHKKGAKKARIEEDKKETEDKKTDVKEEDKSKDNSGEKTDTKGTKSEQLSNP

Nc1cc(F)ccc1NC(=O)c1ccc(CNC(=O)/C=C/c2cccnc2)cc1 [HBI-8000, N-(2-amino-4-fluorophenyl)-4-[[[(2E)-1-oxo-3-(3-pyridinyl)-2-propen-1-yl]amino]methyl]benz amide]
activity at HDAC 1 compared with Entinostat (HDAC 1): more active than Entinostat | inhibition of HDAC 1 (HDAC 1): low nanomolar concentrations | activity at HDAC 8 (HDAC 8): has activity | activity at HDAC 8 compared with Entinostat (HDAC 8; reported by Ning et al.): more active than Entinostat | activity at HDAC 2 compared with Entinostat (HDAC 2): more active than Entinostat | inhibition of HDAC 2 (HDAC 2): low nanomolar concentrations | Median TTE ([1]; HBI-8000 50 mg/kg p.o. qd×21, antibodies 5 mg/kg i.p., endpoint 1500 mm^3 or 45 days, n=10): 11.4 days | % TGD [1, 2]: 31.8% | Mean T-C [1, 2]: 3.0 days | CR (complete response), number of animals ([1]; n=10 per group): 1 | NR (no response), number of animals ([1]; n=10 per group): 8 | PR (partial response), number of animals ([1]; n=10 per group): 1
